Data: PMC4486940, “Redox Linked Flavin Sites in Extracellular Decaheme Proteins Involved in Microbe-Mineral Electron Transfer” (Scientific Reports, 2015)

How the values were obtained:
Type in all cases: binding
MtrC [1] = biological target: T1, MtrC (Shewanella oneidensis, UniProt Q8EG34); test: PD10 gel-filtration co-elution, spectroscopy; details: anaerobic, reduced glutathione (disulfide reduced), 20 mM HEPES pH 7.6, room temperature
T1 construct: soluble; pLS146 in S. oneidensis LS329; model residues 45-670
T1 sequence (Q8EG34 26-671): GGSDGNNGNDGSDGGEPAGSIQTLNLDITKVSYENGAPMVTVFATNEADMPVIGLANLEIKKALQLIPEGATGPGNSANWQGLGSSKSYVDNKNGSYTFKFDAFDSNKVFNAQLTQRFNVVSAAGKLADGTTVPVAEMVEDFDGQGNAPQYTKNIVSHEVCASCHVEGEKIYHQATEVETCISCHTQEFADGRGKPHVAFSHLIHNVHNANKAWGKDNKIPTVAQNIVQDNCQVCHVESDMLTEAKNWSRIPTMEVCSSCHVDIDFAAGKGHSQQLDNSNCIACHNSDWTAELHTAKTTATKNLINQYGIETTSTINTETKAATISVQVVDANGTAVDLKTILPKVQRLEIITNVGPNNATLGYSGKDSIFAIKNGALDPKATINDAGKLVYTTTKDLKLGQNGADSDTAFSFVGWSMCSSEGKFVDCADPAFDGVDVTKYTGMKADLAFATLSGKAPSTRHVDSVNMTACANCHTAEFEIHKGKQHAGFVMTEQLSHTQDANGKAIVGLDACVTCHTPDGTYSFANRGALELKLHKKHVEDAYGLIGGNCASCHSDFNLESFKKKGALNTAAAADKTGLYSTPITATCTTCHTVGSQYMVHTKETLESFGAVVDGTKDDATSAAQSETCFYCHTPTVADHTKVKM

OmcA = biological target: T2, OmcA (Shewanella oneidensis, UniProt Q8EG33); test: PD10 gel-filtration co-elution, flavin fluorescence and absorbance; details: anaerobic, 1 mM reduced glutathione (disulfide reduced), 10 uM FMN, 20 mM HEPES pH 7.6, room temperature
T2 construct: soluble form, isolated as in earlier work
T2 sequence (Q8EG33 28-735): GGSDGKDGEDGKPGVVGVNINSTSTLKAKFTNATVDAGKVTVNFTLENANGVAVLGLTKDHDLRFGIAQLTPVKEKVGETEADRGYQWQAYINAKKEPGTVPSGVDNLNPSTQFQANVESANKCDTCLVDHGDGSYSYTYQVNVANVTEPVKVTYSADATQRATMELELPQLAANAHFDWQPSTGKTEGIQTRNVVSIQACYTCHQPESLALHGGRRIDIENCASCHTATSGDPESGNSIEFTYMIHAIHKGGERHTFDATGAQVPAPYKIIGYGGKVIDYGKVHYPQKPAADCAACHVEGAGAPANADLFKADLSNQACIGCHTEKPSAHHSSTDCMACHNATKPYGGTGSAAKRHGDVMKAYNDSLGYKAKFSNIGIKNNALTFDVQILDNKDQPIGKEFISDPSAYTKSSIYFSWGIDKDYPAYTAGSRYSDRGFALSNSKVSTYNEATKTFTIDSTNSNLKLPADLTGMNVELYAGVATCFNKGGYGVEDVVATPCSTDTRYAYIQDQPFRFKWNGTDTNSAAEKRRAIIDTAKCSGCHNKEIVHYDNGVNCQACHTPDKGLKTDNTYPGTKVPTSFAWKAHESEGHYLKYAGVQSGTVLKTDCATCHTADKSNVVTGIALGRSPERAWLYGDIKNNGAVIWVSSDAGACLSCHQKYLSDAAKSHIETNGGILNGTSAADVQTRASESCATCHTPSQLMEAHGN

MtrF = biological target: T3, MtrF (Shewanella oneidensis, UniProt Q8EG32); test: PD10 gel-filtration co-elution, flavin fluorescence ([…] nm); details: anaerobic, 1 mM reduced glutathione (disulfide reduced), 10 uM FMN, 20 mM HEPES pH 7.6, room temperature
T3 construct: detergent-solubilised form, isolated as in earlier work
T3 sequence (Q8EG32 24-639): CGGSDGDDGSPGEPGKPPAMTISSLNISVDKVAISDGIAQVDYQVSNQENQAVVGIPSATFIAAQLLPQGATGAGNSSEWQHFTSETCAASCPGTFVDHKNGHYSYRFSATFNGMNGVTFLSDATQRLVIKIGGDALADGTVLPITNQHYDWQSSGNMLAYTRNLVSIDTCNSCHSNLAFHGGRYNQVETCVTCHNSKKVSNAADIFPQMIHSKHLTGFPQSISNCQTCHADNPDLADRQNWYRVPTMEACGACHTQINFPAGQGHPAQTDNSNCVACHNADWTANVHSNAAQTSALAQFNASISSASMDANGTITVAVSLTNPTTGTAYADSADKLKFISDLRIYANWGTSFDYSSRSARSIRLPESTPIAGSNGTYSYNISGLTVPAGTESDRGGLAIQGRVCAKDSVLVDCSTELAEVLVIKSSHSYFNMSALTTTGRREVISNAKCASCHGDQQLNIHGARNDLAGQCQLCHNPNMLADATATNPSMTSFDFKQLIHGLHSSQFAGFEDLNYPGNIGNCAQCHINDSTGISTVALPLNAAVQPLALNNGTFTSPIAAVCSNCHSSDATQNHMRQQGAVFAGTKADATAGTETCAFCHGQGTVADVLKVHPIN

MtrC [2] = biological target: T1, MtrC; test: PD10 gel-filtration co-elution, flavin fluorescence and absorbance; fluorescence quenching; details: anaerobic, 1 mM reduced glutathione (disulfide reduced), 1 uM MtrC, 10 uM FMN, 20 mM HEPES pH 7.6, room temperature
UndA = biological target: T4, UndA (Shewanella sp. HRCR_06, UniProt F8UWD6); test: PD10 gel-filtration co-elution, flavin fluorescence ([…] nm); details: anaerobic, 1 mM reduced glutathione (disulfide reduced), 10 uM FMN, 20 mM HEPES pH 7.6, room temperature
T4 construct: soluble form, isolated as in earlier work
T4 sequence (F8UWD6 27-843): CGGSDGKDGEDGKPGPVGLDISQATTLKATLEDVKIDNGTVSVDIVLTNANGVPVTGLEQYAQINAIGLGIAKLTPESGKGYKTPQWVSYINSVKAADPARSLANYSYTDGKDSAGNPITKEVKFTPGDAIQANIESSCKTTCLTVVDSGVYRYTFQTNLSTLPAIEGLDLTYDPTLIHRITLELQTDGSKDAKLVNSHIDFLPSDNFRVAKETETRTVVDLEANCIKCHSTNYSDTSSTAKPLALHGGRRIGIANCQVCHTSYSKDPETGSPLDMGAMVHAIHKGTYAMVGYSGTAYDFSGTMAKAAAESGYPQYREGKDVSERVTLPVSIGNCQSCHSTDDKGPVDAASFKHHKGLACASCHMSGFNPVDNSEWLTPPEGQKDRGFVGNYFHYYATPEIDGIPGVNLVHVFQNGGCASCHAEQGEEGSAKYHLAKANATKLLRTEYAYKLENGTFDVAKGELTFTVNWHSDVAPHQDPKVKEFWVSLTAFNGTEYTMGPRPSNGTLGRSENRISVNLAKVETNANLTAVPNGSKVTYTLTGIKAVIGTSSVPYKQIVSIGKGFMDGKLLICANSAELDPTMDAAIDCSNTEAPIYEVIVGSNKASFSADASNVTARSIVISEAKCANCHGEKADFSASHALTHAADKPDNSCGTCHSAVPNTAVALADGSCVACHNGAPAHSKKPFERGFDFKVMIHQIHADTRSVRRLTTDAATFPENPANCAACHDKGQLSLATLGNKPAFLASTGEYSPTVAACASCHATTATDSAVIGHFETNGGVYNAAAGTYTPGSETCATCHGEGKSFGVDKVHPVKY

| SMILES | PD10 gel-filtration co-elution, spectroscopy (MtrC [1]) | PD10 gel-filtration co-elution, flavin fluorescence and absorbance (OmcA) | PD10 gel-filtration co-elution, flavin fluorescence (525 nm) (MtrF) | PD10 gel-filtration co-elution, flavin fluorescence and absorbance; fluorescence (MtrC [2]) | PD10 gel-filtration co-elution, flavin fluorescence (525 nm) (UndA) |
| --- | --- | --- | --- | --- | --- |
| Cc1cc2nc3c(=O)[nH]c(=O)nc-3n(C[C@H](O)[C@H](O)[C@H](O)CO)c2cc1C [riboflavin] | MtrC was also capable of tightly binding a single molecule of riboflavin | – | – | – | – |
| Cc1cc2nc3c(=O)[nH]c(=O)nc-3n(C[C@H](O)[C@H](O)[C@H](O)COP(=O)(O)O)c2cc1C [FMN] | – | Co-elution of FMN and OmcA was observed in the presence, but not the absence, of glutathione | OMMC-FMN interactions were also observed after incubation of MtrF or UndA with FMN | FMN associated specifically with MtrC in the presence of glutathione | OMMC-FMN interactions were also observed after incubation of MtrF or UndA with FMN |
